Where two headings read alike, the source gives them in different places.
Key:
α-amylase = conditions: validation set, cited from earlier work
[1] = study encompassing 714 medicated patients; ref [10]; cited from earlier work
[2] = biological target: T1, α-amylase from porcine pancreas (Sus scrofa, UniProt P00690); test: In vitro pancreatic α-amylase inhibitory assay (starch/DNS, 540 nm); assay type: biochemical; conditions: 1% starch, pH 6.9, 25 °C, read-out: IC50 (α-amylase inhibition)
T1 construct: α-amylase from porcine pancreas (A3176); purchased Sigma-Aldrich (Germany) A3176; host or cells: porcine pancreas (tissue-derived)
T1 sequence (P00690 16-511): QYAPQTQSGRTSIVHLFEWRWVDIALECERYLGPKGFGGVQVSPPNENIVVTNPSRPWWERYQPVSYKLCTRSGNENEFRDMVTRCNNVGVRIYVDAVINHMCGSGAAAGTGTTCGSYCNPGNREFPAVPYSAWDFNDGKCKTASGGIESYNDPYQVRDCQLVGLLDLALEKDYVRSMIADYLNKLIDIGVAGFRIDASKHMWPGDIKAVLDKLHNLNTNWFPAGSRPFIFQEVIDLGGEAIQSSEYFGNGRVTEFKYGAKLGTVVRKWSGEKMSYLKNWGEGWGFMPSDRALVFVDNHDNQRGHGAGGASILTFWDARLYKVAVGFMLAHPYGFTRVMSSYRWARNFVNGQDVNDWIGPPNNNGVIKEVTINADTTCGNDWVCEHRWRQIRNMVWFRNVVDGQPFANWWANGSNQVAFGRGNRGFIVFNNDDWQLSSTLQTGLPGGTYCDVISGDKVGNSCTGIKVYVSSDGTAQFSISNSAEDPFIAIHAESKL
Description: Analytical purity grade solvents were used throughout the study.
With reference to the established technique, the assay was carried out quantitatively with minor adjustments. Initially, 500µL test solution was preincubated with 500µL α-amylase solution (0.55 unit/mL) at 25°C for 10 min. The α-amylase was prepared in a buffer solution (0.02M sodium phosphate pH 6.9 with 0.006M NaCl). Afterwards, 500µL of 1% w/v starch in buffer solution was mixed in and left to incubate for 10 min at 25°C. To bring the reaction to a halt, 1mL dinitrosalicylic acid (DNS) was introduced and the mixture was placed in a boiling water bath for 3.5 min. After cooling to room temperature, the mixture was then diluted using 10mL distilled water and absorbance was measured using a Laxco spectrophotometer (α1502, Laxco Inc., USA) at λ 540nm. Blanks used throughout the experiment were made by adding pure buffer instead of α-amylase solution. […] To calculate the pancreatic α-amylase inhibitory activity, the following equation was used: %Inhibtion=100×1-Abs540nmExtract-Abs540nmPositivecontrol/Abs540nmNegativecontrol-Abs540nmPositivecontrol

Question: For `O=c1c(O)c(-c2ccc(O)cc2)oc2cc(O)ccc12` [3,7,4'-Trihydroxyflavone], which IC50 (α-amylase; supplement ref [8]) is on record?
Answer: 59 ± 4 µM

Question: For `O=c1cc(-c2ccc(O)c(O)c2)oc2cccc(O)c12` [5,3',4'-Trihydroxyflavone], which IC50 (α-amylase; supplement ref [8]) is on record?
Answer: 148 ± 5 µM

Question: With `O=c1c(Cc2ccc(O)cc2)coc2cc(O)cc(O)c12` [5,7-dihydroxy-3-(4′-hydroxybenzyl) chromone] as the compound, how does the IC50 (α-amylase; supplement ref [11]) read?
Answer: 2590 ± 50 µM

Question: Which IC50 (α-amylase; supplement ref [11]) does the source give for `Cc1c(O)cc2c(c1O)C(=O)C(Cc1ccc(O)cc1)CO2` (stereo not shown) [5,7-dihydroxy-6-methyl-3-(4′-hydroxybenzyl) chroman-4-one] here?
Answer: 5990 ± 60 µM

Question: Which IC50 (α-amylase; supplement ref [8]) does the source give for `O=c1cc(-c2ccc(O)c(O)c2)oc2cc(O)c(Cl)c(O)c12` [6-Chloro-3',4',5,7-tetrahydroxyflavone] here?
Answer: 44 ± 3 µM

Question: With `O=c1cc(-c2ccc(O)c(O)c2)oc2cc(O)ccc12` [7, 3', 4'-trihydroxyflavone] as the compound, how does the IC50 (α-amylase; supplement ref [3]) read?
Answer: 16.3 ± 0.52 µM

Question: Which IC50 (α-amylase; supplement ref [11]) does the source give for `COc1cc(OC)c2c(c1C)O[C@H](c1ccc(O)cc1)CC2` [(2S)-4′-hydroxy-5,7-dimethoxy-8-methylflavan] here?
Answer: 6030 ± 270 µM

Question: With `C[C@H]1O[C@H](O[C@H]2[C@H](O)[C@@H](O)[C@@H](O[C@H]3[C@H](O)[C@@H](O)C(O)O[C@@H]3CO)O[C@@H]2CO)[C@H](O)[C@@H](O)[C@@H]1N[C@H]1C=C(CO)[C@@H](O)[C@H](O)[C@H]1O` (stereo partly shown) [Acarbose] as the compound, how does the “participants who discontinued acarbose due to gastrointestinal side effects” value [1] read?
Answer: 19%

Question: For `O=C(O)C1OC(Oc2cc(O)c3c(=O)cc(-c4ccc(O)cc4)oc3c2)C(O)C(O)C1O` [Apigenin-7-O-β-D-glucopyranuronide], which IC50 (α-amylase; supplement ref [3]) is on record?
Answer: 10.4 ± 2.51 µM

Question: Which IC50 (α-amylase; supplement ref [3]) does the source give for `O=c1cc(-c2ccc(O)cc2)oc2cc(O)cc(O)c12` [Apigenin] here?
Answer: 12.2 ± 2.14 µM

Question: With `OCC1=C[C@@H](O)[C@@H]2C=CO[C@@H](O[C@@H]3O[C@H](CO)[C@@H](O)[C@H](O)[C@H]3O)[C@H]12` [Aucubin] as the compound, how does the IC50 [2] read?
Answer: 2.37 mM

Question: For `O=c1cc(-c2ccccc2)oc2cc(O)c(O)c(O)c12` [Baicalein], which IC50 (α-amylase; supplement ref [12]) is on record?
Answer: 11200 ± 200 µM

Question: Which IC50 (α-amylase; supplement ref [13]) does the source give for `O=C(O)/C=C/c1ccc(O)c(O)c1` [Caffeic acid] here?
Answer: 19400 µM

Question: For `Oc1cc(O)c2c(c1)OC(c1ccc(O)c(O)c1)C(O)C2` (stereo not shown) [Catechin], which IC50 [2] is on record?
Answer: 5.04 ± 0.04 mM

Question: What about the IC50 (α-amylase; supplement ref [9]) of the same compound?
Answer: 1160 ± 24 µM

Question: What does the source list for `O=C(/C=C/c1ccc(O)c(O)c1)O[C@@H]1C[C@](O)(C(=O)O)C[C@@H](O)[C@H]1O` [Chlorogenic Acid, chlorogenic acid]?
Answer: IC50 [2]: 7.39 ± 0.22 mM; IC50 (α-amylase; supplement ref [9]): 1050 ± 18 µM

Question: Which IC50 (α-amylase; supplement ref [12]) does the source give for `O=c1cc(-c2ccccc2)oc2cc(O)cc(O)c12` [Chrysin] here?
Answer: 15300 ± 374 µM

Question: With `OC[C@H]1O[C@@H](Oc2cc3c(O[C@@H]4O[C@H](CO)[C@@H](O)[C@H](O)[C@H]4O)cc(O)cc3[o+]c2-c2ccc(O)c(O)c2)[C@H](O)[C@@H](O)[C@@H]1O` [Cyanidin-3,5-glucoside] as the compound, how does the IC50 (α-amylase; supplement ref [5]) read?
Answer: 40 ± 7 µM

Question: With `OC[C@H]1O[C@@H](Oc2cc3c(O)cc(O)cc3[o+]c2-c2ccc(O)c(O)c2)[C@H](O)[C@@H](O)[C@@H]1O` [Cyanidin-3-glucoside] as the compound, how does the IC50 (α-amylase; supplement ref [5]) read?
Answer: 24 ± 3 µM

Question: For `C[C@@H]1O[C@@H](OC[C@H]2O[C@@H](Oc3cc4c(O)cc(O)cc4[o+]c3-c3ccc(O)c(O)c3)[C@H](O)[C@@H](O)[C@@H]2O)[C@H](O)[C@H](O)[C@H]1O` [Cyanidin-3-rutinoside], which IC50 (α-amylase; supplement ref [6]) is on record?
Answer: 24.4 ± 0.1 µM

Question: With `O=C(O[C@@H]1Cc2c(O)cc(O)cc2O[C@@H]1c1cc(O)c(O)c(O)c1)c1cc(O)c(O)c(O)c1` [Epigallocatechin gallate] as the compound, how does the IC50 (α-amylase; supplement ref [4]) read?
Answer: 11.5 ± 0.02 µM
